According to US8007921B2, “Gypsum board containing antimicrobial and antibacterial compounds” (Quick-Med Technologies, Inc., priority 2003, dated 2011):

Tests used:
[1] = test system: S. aureus bacteria; assay: zone of inhibition of extract solutions on agar culture plate; assay type: cell-based
Protocol: A nonwoven rayon gauze material (SofWick, a commercially available rayon gauze material manufactured by Johnson & Johnson) was graft polymerized with diallyldimethylammonium chloride (DADAMC) to 10 weight % poly(DADMAC), to form the cationic cellulose surface. Each gauze substrate treated in this manner measured approximately 40 square inches. One gram samples of cationic cellulose prepared in this manner (sample K), and untreated SofWick (sample L) were each soaked overnight in 25 ml of 0.5% SP solution. Samples were removed and squeezed to remove excess liquid. Samples were then washed in 25 mL of distilled water for one hour with agitation, and then squeezed to remove excess liquid. Each sample was subjected to four sequential extractions using 25 mL of distilled water for one hour at room temperature with agitation. Samples were squeezed to remove excess solution between extraction cycles. A fifth extraction was performed using pH 7.4 phosphate buffered saline (PBS). Saline is expected to remove a greater amount of pyrithione due to ion exchange. The extract solutions were tested for antimicrobial activity by placing single 20 microliter drops of the solutions at marked locations on an agar culture plate spread with ~3×10^3 CFU (continuous lawn) of S. aureus bacteria. Plates were incubated overnight at 37° C., and the diameter of the “zone of inhibition”, or “ZOI” was measured. […]

[2] = cited from earlier work

Compound | ZOI ([1]; 0.01% SP control solution) | ZOI ([1]; 0.1% SP control solution) | water solubility (aqueous solutions possible) ([2]; aqueous) | max. solubility in water ([2]; water)
[Na+].[O-][n+]1ccccc1[S-] [SP, sodium pyrithione] | 12 mm | 26 mm | > 50 wt % | –
Zinc pyrithione | – | – | – | 0.0015%
